Experimental data reported in ChEMBL document CHEMBL1145887, “Large dimeric ligands with favorable pharmacokinetic properties and peroxisome proliferator-activated receptor agonist activity in vitro and in vivo” (J Med Chem, 2003).

How the values were obtained:
Mus musculus [1] = assay: In vivo nonfasting triglyceride in db/db mice after oral treatment; assay type: functional
[2] = Oral bioavailability in rat; assay type: ADME, organism-based; conditions: in vivo
[3] = biological target: T1, Peroxisome proliferator-activated receptor delta (Homo sapiens, UniProt Q03181); assay: In vitro transactivation of human Peroxisome proliferator activated receptor delta (hPPARdelta)
T1 sequence (Q03181 whole entry): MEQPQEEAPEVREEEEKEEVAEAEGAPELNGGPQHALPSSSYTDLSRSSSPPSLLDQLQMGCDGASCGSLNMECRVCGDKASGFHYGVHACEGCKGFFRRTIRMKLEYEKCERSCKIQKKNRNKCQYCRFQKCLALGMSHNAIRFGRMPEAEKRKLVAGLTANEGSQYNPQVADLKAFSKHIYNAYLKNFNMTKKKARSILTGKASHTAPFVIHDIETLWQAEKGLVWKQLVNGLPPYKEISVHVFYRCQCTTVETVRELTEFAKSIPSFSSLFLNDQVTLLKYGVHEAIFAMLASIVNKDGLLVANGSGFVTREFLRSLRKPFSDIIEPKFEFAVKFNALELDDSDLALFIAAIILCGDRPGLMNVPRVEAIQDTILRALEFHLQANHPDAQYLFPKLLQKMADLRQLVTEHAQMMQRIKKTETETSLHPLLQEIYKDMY

[4] = biological target: T2, Peroxisome proliferator-activated receptor alpha (Rattus norvegicus) (UniProt P37230); assay: (§1) In vitro transactivation of rat Peroxisome proliferator activated receptor alpha; set-up: concentration or dose not given beside the values
T2 sequence (whole entry): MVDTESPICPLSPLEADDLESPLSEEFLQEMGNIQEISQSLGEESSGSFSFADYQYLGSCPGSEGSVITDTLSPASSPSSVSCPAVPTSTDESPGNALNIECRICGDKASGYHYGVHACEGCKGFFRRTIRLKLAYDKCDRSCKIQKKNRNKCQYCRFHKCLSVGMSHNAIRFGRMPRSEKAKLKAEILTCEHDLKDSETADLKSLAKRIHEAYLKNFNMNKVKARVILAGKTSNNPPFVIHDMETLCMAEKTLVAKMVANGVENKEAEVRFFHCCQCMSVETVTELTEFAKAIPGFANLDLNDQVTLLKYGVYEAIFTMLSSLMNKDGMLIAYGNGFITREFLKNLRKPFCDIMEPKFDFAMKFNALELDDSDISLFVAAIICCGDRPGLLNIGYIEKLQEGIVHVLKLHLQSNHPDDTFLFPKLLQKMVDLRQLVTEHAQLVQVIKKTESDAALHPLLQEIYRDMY

[5] = Maximum plasma concentration in rat after peroral administration; assay type: ADME, organism-based; set-up: route oral; conditions: po
[6] = Partition coefficient (logP); assay type: physicochemical; conditions: octanol/water
Mus musculus [7] = species: Mus musculus; assay: Area under blood glucose time curve after oral glucose test in mice; assay type: functional
Mus musculus [8] = assay: In vivo nonfasting blood glucose in db/db mice after oral treatment; assay type: functional
[9] = Volume of distribution during steady state in rat; conditions: in vivo
[10] = Clearance in rat; assay type: ADME, organism-based; conditions: in vivo
[11] = biological target: T3, Peroxisome proliferator-activated receptor alpha (Homo sapiens, UniProt Q07869); assay: (§2) In vitro transactivation of human Peroxisome proliferator activated receptor alpha (hPPARalpha)
T3 sequence (Q07869 whole entry): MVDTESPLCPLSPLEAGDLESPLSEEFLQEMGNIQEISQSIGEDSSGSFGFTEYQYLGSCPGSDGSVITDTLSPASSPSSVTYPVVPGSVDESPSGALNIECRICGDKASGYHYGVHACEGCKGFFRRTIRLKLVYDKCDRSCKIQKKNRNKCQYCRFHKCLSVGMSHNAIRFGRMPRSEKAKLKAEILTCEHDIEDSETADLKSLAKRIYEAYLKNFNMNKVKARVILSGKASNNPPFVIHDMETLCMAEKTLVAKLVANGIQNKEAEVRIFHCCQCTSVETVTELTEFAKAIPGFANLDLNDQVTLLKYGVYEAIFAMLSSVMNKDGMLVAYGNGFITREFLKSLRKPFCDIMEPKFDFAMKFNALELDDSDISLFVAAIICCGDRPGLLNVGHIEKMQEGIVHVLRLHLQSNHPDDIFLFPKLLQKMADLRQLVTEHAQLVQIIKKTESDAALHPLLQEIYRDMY

Mus musculus [12] = assay: In vivo insulin effect in db/db mice after oral treatment; assay type: functional
[13] = biological target: T4, Peroxisome proliferator-activated receptor alpha (Rattus norvegicus, UniProt P37230); assay: as §1
T4 sequence (P37230 whole entry): T2 sequence (whole entry)

[14] = biological target: T5, Peroxisome proliferator-activated receptor alpha (Homo sapiens) (UniProt Q07869); assay: as §2; set-up: concentration or dose not given beside the values
T5 sequence (whole entry): T3 sequence (Q07869 whole entry)

[15] = Area under the plasma concentration-time curve in rat after peroral administration; assay type: ADME, organism-based; conditions: po
[16] = Oral half-life in rat after peroral administration; assay type: ADME, organism-based; conditions: in vivo
[17] = biological target: T6, Peroxisome proliferator-activated receptor gamma (Homo sapiens, UniProt P37231)
T6 sequence (P37231 whole entry): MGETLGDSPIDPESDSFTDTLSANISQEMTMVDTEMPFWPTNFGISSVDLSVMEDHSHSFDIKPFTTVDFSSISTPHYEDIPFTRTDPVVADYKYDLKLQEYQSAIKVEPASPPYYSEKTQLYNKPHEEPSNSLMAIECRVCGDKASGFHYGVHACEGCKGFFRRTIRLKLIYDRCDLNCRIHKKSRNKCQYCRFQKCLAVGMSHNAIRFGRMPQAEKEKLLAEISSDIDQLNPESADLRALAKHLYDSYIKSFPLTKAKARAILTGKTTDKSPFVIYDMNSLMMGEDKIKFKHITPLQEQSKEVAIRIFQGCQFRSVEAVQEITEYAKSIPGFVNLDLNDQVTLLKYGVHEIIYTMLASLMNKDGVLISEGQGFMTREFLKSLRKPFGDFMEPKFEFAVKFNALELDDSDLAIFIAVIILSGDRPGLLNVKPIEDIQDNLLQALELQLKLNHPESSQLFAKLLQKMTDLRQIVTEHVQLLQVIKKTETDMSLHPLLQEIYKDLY
Description: In vitro transactivation of human Peroxisome proliferator activated receptor gamma

Row | bioavailability [2] | EC50 [3] | Fold activation [4] | Cmax [5] | logP [6] | clearance [10] | EC50 [11] | EC50 [13] | Fold activation [14] | AUC [15] | half-life [16] | EC50 [17] | SMILES | ED50 (Mus musculus [1]) | Max reduction (Mus musculus [1]) | Max reduction (Mus musculus [7]) | ED50 (Mus musculus [7]; Mus musculus, Blood, po) | ED50 (Mus musculus [8]) | Max reduction (Mus musculus [8]) | ED50 (Mus musculus [12]) | Max reduction (Mus musculus [12]) | also measured
1 | 100% | 9550 nM | 166% | 9250 ng/mL | 4.5 | 0.49 mL/min/kg | 490 nM | 11100 nM | 158% | 116000 ng·h/mL | 3.55 h | 2030 nM | CCO[C@@H](Cc1ccc(OC/C=C(\C)c2ccc(-c3ccccc3)cc2)cc1)C(=O)O | 0.3 mg/kg | 65% | 50% | 0.3 mg/kg | 0.2 mg/kg | 53% | 0.2 mg/kg | 95% | Vd [9]: 0.16 L/kg
2 | 83% | – | – | – | 1.91 | 2.1 mL/min/kg | – | – | – | 14600 ng·h/mL | 3.03 h | – | CN(CCOc1ccc(CC2SC(=O)NC2=O)cc1)c1ccccn1 (stereo not drawn) [ROSIGLITAZONE] | 0.1 mg/kg | 58% | 16% | 0.8 mg/kg | 0.9 mg/kg | 35% | 0.1 mg/kg | 43% | –
3 | – | – | 331% | – | 4.27 | – | 32100 nM | 131000 nM | 265% | – | – | – | CC(C)(Oc1ccc(C(=O)c2ccc(Cl)cc2)cc1)C(=O)O [FENOFIBRIC ACID] | > 300 mg/kg | 20% | 0% | > 300 mg/kg | > 300 mg/kg | 10% | 191 mg/kg | 32% | –
4 | 58% | 2080 nM | 203% | 23200 ng/mL | 4.89 | 0.04 mL/min/kg | 6690 nM | 19900 nM | 247% | 9790 ng·h/mL | > 6.67 h | 320 nM | CCO[C@@H](Cc1ccc(OC/C=C(\C)c2ccc(-c3ccc(/C(C)=C/COc4ccc(C[C@H](OCC)C(=O)O)cc4)cc3)cc2)cc1)C(=O)O | 0.3 mg/kg | 60% | 53% | 0.4 mg/kg | 0.2 mg/kg | 40% | 0.2 mg/kg | 91% | Vd [9]: 0.08 L/kg
5 | – | – | – | – | – | – | – | 2100 nM | – | – | – | – | Cc1cccc(Nc2cc(Cl)nc(SCC(=O)O)n2)c1C [PIRINIXIC ACID] | 3 mg/kg | 32% | 13% | – | 2.2 mg/kg | 36% | 15 mg/kg | 45% | ED50 (Mus musculus [7]): 4.7 mg/kg
6 | 100% | 2170 nM | 210% | 27800 ng/mL | 4.81 | 0.1 mL/min/kg | 710 nM | 6300 nM | 173% | 111000 ng·h/mL | > 6 h | 110 nM | CCO[C@@H](Cc1ccc(OC/C=C/C#Cc2ccc(C#C/C=C/COc3ccc(C[C@H](OCC)C(=O)O)cc3)cc2)cc1)C(=O)O | 0.2 mg/kg | 56% | 52% | 0.9 mg/kg | 0.4 mg/kg | 55% | 0.4 mg/kg | 90% | Vd [9]: 0.04 L/kg
7 | – | – | – | – | – | – | – | – | – | – | – | – | CCc1ccc(CCOc2ccc(CC3SC(=O)NC3=O)cc2)nc1 (stereo not drawn) [PIOGLITAZONE] | 27 mg/kg | 21% | 39% | 12 mg/kg | 2.6 mg/kg | 53% | 15 mg/kg | 54% | –
8 | 63% | 10500 nM | 109% | 7210 ng/mL | 4.81 | 0.23 mL/min/kg | 300 nM | 4600 nM | 193% | 84900 ng·h/mL | 6.7 h | 1650 nM | CCO[C@@H](Cc1ccc(OC/C=C/C#Cc2cccc(C#C/C=C/COc3ccc(C[C@H](OCC)C(=O)O)cc3)c2)cc1)C(=O)O | 0.1 mg/kg | 46% | 60% | 0.5 mg/kg | 0.9 mg/kg | 54% | 0.6 mg/kg | 86% | Vd [9]: 0.16 L/kg
9 | – | 1880 nM | 15% | – | – | – | 960 nM | – | 79% | – | – | 7910 nM | CCCCC[C@H](O)/C=C/[C@@H]1[C@H]2C/C(=C\CCCC(=O)O)C[C@H]2C[C@H]1O [CARBACYCLIN] | – | – | – | – | – | – | – | – | –
10 | 89% | 6900 nM | 112% | 4570 ng/mL | 3.87 | 0.54 mL/min/kg | 67 nM | 700 nM | 123% | 62200 ng·h/mL | 2.03 h | 1130 nM | CCO[C@@H](Cc1ccc(OC/C=C/C#Cc2ccccc2)cc1)C(=O)O | 0.4 mg/kg | 57% | 45% | 1.2 mg/kg | 0.4 mg/kg | 54% | 1 mg/kg | 92% | Vd [9]: 0.14 L/kg
